From patent US20250032490A1, “THERAPEUTIC REGIMENS FOR TREATMENT OF PAROXYSMAL NOCTURNAL HEMOGLOBINURIA” (Achillion Pharmaceuticals, Inc., priority 2017, published 2025)

Assays:
[1] = tested on: PNH Type III red blood cells; experiment: Phase 2 study in PNH subjects: PNH red blood cell (Type III) percentage; type: in vivo, human; settings: Compound 1 100 mg TID + IV eculizumab
Protocol: (§1) The starting dose of compound 1 is based upon group assignment. The Group 1 dose is 100mg three times daily (TID). The Group 2 dose is 150 mg TID. The Group 3 dose is 200 mg TID. The Group 4 dose will receive the optimal dose determined from Groups 1-3.
(§2) All doses are taken approximately 15-30 minutes after completion of a meal or snack.
(§3) This will be followed by a long-term extension phase.
(§4) 2 subjects in the first dose level of 100 mg TID have been completed and data collected through 4 weeks. Data collected include lactate dehydrogenase (LDH) levels, hemoglobin levels, reticulocytes, PNH red blood cells (Type III) percentage, C3 Fragment Deposition percentage, and bilirubin levels and their changes from baseline.
Measuring the percentage of PNH Type III red blood cells is a pharmacodynamic marker that is measured by flow cytometry, which provides information on cell size, shape, and percentage of a type of cell. This assay determines whether CD55 and CD59 are missing from the surface of red blood cells. These proteins help protect normal cells from hemolysis. PNH Type III cells are extremely sensitive to the complement system and hemolysis. PNH Type III cell percentage is measured from plasma drawn on Day 1, Week 2, and Week 4 (FIGS. 16A & 16B and Table 18).

[2] = Phase 2 study in PNH subjects: hemoglobin levels; type: in vivo, human; settings: Compound 1 100 mg TID + IV eculizumab
Protocol: as §1, §2, §3, §4
Free hemoglobin is a pharmacodynamic marker that is measured from blood drawn on Day 1, Week 1, Week 2, and Week 4 (FIGS. 14A & 14B and Table 16). Low levels of hemoglobin is a sign of hemolytic anemia.

PNH erythrocytes = experiment: CAP-mediated hemolysis assay with PNH erythrocytes (subject A); type: cell-based, human; settings: for inhibition at 0.0234 µM: Compound 1 0.0234 μM; for inhibition at 0.0469 µM: Compound 1 0.0469 μM; for inhibition at 0.0938 µM: Compound 1 0.0938 μM; for inhibition at 0.1875 µM: Compound 1 0.1875 μM; for inhibition at 0.188 µM: Compound 1 0.188 μM; for inhibition at 0.375 µM: Compound 1 0.375 μM; for inhibition at 0.75 µM: Compound 1 0.75 μM; for inhibition at 1.5 µM: Compound 1 1.5 μM
Protocol: Complement-preserved normal human serum (NHS) from an individual donor of ABO blood group type AB (NHS-AB) was purchase from BioreclamationIVT (Westbury, NY). Gelatin veronal buffer (GVB), pH 7.3, without Ca^++ and Mg^++ (GVB^0) and 100 mM MgCl2 +100 mM EGTA (MgEGTA) were obtained from Complement Technology Inc. (Tyler, TX).
GVB^0·MgEGTA was prepared by mixing GVB^0 and 100 mM MgEGTA in a 9:1 ratio. PNH erythrocytes were used within five days of blood collection; before assay cells were collected by centrifugation at 800×g and 4° C. for 3 minutes and resuspended in fresh cold GVB^0·MgEGTA to a density of 5×10^8 cells/mL.
50 μL of NHS-AB was added to each well. The plates were mixed and incubated at room temperature for 5 minutes. 24 μL of this NHS-AB with compound was then transferred to duplicate wells of V-bottom microtiter plates each containing 76 μL GVB0·MgEGTA. 20 μL PNH erythrocytes was then added to each well and the plates were sealed, mixed, and incubated at 37° C. for 30 minutes with an added shaking for 15 minutes. […] Following incubation, PNH cells were removed by centrifugation at 800×g and 4° C. for 3 minutes, 100 μL supernatant per well was transferred to flat-bottom clear microtiter plates, and A405 of the supernatant was measured in a Molecular Devices Spectramax Plus plate reader.
Combinatorial interactions were analyzed via two methods.
Inhibition was analyzed by the method of Prichard and Shipman (Prichard, M. N. and C. Shipman, Jr. A Three-Dimensional Model to Analyze Drug-Drug Interactions. Antiviral Research 1990, 14:181-205) Three-dimensional surface graphs of each experiment were generated and analyzed using an Excel spreadsheet program adapted from the MacSynergy II spreadsheet (University of Alabama, Birmingham, AL). The X-axis and Y-axis of each surface graph represent the concentrations of the two test compounds, and the Z-axis represents the difference between measured inhibition and a theoretically determined additive inhibition. For an additive relationship, the surface graph resembles a horizontal plane at Z=0, whereas positive surface peaks indicate greater inhibition than expected and therefore synergy, and negative surface peaks indicate less inhibition than expected and therefore antagonism.
Synergy and antagonism volumes were calculated separately as the summed volumes of peaks respectively above and below the Z=0 plane. Volumes were determined using 95% confidence limits to assure significance.
Inhibition was analyzed by the method of Chou and Talalay (Chou, T.-C. and P. Talalay. Analysis of Combined Drug Effects: A New Look at a Very Old Problem. Trends Pharmacol. Sci. 1983, 4:450-454; Chou, T. C. Theoretical basis, experimental design, and computerized simulation of synergism and antagonism in drug combination studies. Pharmacological Reviews 2006, 58:621-681). Analysis using the median-effect equation of Chou and Talalay was performed with CompuSyn software (ComboSyn, Inc, Paramus, NJ). […] Combination index (CI) values were determined at inhibition values of 50%, 75%, and 90%.

[3] = subject 003-001, DAY 1 (baseline)
[4] = subject 003-002, DAY 1 (baseline)
[5] = Homo sapiens, Erythrocyte, Experiment 2, Eculizumab 0-400 μg/mL
[6] = Homo sapiens, Erythrocyte, Experiment 2, Compstatin 0-300 μM
[7] = Homo sapiens, Erythrocyte, Experiment #1, Compstatin 0-300 μM
[8] = Homo sapiens, Erythrocyte, Experiment #1, Eculizumab 0-400 μg/mL

CC(=O)c1nn(CC(=O)N2C[C@H](F)C[C@H]2C(=O)Nc2cccc(Br)n2)c2ccc(-c3cnc(C)nc3)cc12 [Compound 1, (2S,4R)-1-(2-(3-acetyl-5-(2-methylpyrimidin-5-yl)-1H-indazol-1-yl)acetyl)-N-(6-bromopyridin-2-yl)-4-fluoropyrrolidine-2-carboxamide]
PNH RBC (TYPE III) Observed [1, 3]: 41%
PNH RBC (TYPE III) CFB (change from baseline) ([1]; subject 003-001, DAY 1): 0%
PNH RBC (TYPE III) CFB (change from baseline) ([1]; subject 003-001, WEEK 2): 21%
PNH RBC (TYPE III) Observed ([1]; subject 003-001, WEEK 2): 62%
PNH RBC (TYPE III) CFB (change from baseline) ([1]; subject 003-001, WEEK 4): 29%
PNH RBC (TYPE III) Observed ([1]; subject 003-001, WEEK 4): 70%
PNH RBC (TYPE III) Observed [1, 4]: 50%
PNH RBC (TYPE III) CFB (change from baseline) ([1]; subject 003-002, DAY 1): 0%
PNH RBC (TYPE III) CFB (change from baseline) ([1]; subject 003-002, WEEK 2): 10%
PNH RBC (TYPE III) Observed ([1]; subject 003-002, WEEK 2): 60%
PNH RBC (TYPE III) CFB (change from baseline) ([1]; subject 003-002, WEEK 4): 18%
PNH RBC (TYPE III) Observed ([1]; subject 003-002, WEEK 4): 68%
HEMOGLOBIN Observed [2, 3]: 5.0 g/dL
HEMOGLOBIN CFB (change from baseline) ([2]; subject 003-001, DAY 1): 0.0 g/dL
HEMOGLOBIN CFB (change from baseline) ([2]; subject 003-001, WEEK 1): 1.1 g/dL
HEMOGLOBIN Observed ([2]; subject 003-001, WEEK 1): 6.1 g/dL
HEMOGLOBIN CFB (change from baseline) ([2]; subject 003-001, WEEK 2): 2.0 g/dL
HEMOGLOBIN Observed ([2]; subject 003-001, WEEK 2): 7.0 g/dL
HEMOGLOBIN CFB (change from baseline) ([2]; subject 003-001, WEEK 4): 2.6 g/dL
HEMOGLOBIN Observed ([2]; subject 003-001, WEEK 4): 7.6 g/dL
HEMOGLOBIN Observed [2, 4]: 9.8 g/dL
HEMOGLOBIN CFB (change from baseline) ([2]; subject 003-002, DAY 1): 0.0 g/dL
HEMOGLOBIN CFB (change from baseline) ([2]; subject 003-002, WEEK 1): 1.4 g/dL
HEMOGLOBIN Observed ([2]; subject 003-002, WEEK 1): 11.2 g/dL
HEMOGLOBIN CFB (change from baseline) ([2]; subject 003-002, WEEK 2): 1.8 g/dL
HEMOGLOBIN Observed ([2]; subject 003-002, WEEK 2): 11.6 g/dL
HEMOGLOBIN CFB (change from baseline) ([2]; subject 003-002, WEEK 4): 2.9 g/dL
HEMOGLOBIN Observed ([2]; subject 003-002, WEEK 4): 12.7 g/dL
inhibition at 0.0234 µM (PNH erythrocytes; [5]): 0%
inhibition at 0.0469 µM (PNH erythrocytes; [5]): 0%
inhibition at 0.0938 µM (PNH erythrocytes; [6]): 0%
inhibition at 0.0938 µM (PNH erythrocytes; [5]): 0%
inhibition at 0.1875 µM (PNH erythrocytes; [6]): 6%
inhibition at 0.188 µM (PNH erythrocytes; [5]): 7%
inhibition at 0.375 µM (PNH erythrocytes; [6]): 27%
inhibition at 0.375 µM (PNH erythrocytes; [5]): 27%
inhibition at 0.75 µM (PNH erythrocytes; [6]): 65%
inhibition at 0.75 µM (PNH erythrocytes; [5]): 42%
inhibition at 1.5 µM (PNH erythrocytes; [6]): 90%
inhibition at 1.5 µM (PNH erythrocytes; [5]): 77%
inhibition at 3 µM (PNH erythrocytes; Homo sapiens, Erythrocyte, Experiment 2, Compound 1 3 μM, Compstatin 0-300 μM): 97%
inhibition at 6 µM (PNH erythrocytes; Homo sapiens, Erythrocyte, Experiment 2, Compound 1 6 μM, Compstatin 0-300 μM): 97%
inhibition at 0.0234 µM (PNH erythrocytes; [7]): 0%
inhibition at 0.0234 µM (PNH erythrocytes; [8]): 4%
inhibition at 0.0469 µM (PNH erythrocytes; [7]): 0%
inhibition at 0.0469 µM (PNH erythrocytes; [8]): 2%
inhibition at 0.0938 µM (PNH erythrocytes; [7]): 0%
inhibition at 0.0938 µM (PNH erythrocytes; [8]): 6%
inhibition at 0.1875 µM (PNH erythrocytes; [7]): 11%
inhibition at 0.188 µM (PNH erythrocytes; [8]): 14%
inhibition at 0.375 µM (PNH erythrocytes; [7]): 19%
inhibition at 0.375 µM (PNH erythrocytes; [8]): 24%
inhibition at 0.75 µM (PNH erythrocytes; [7]): 51%
inhibition at 0.75 µM (PNH erythrocytes; [8]): 55%
inhibition at 1.5 µM (PNH erythrocytes; [7]): 80%
inhibition at 1.5 µM (PNH erythrocytes; [8]): 86%
IC50 (PNH erythrocytes; Homo sapiens, Erythrocyte, AP activity in vitro): 14 nM
inhibition at the high end of the test concentration ranges (PNH erythrocytes; single agent, PNH erythrocytes): complete inhibition
